Assay results published in ChEMBL document CHEMBL4364276, “Discovery of 4-phenyl-2H-benzo[b][1,4]oxazin-3(4H)-one derivatives as potent and orally active PI3K/mTOR dual inhibitors” (Eur J Med Chem, 2019).

Key:
[1] = biological target: NUAK family SNF1-like kinase 1 (Homo sapiens) (UniProt O60285); assay: Inhibition of human ARK5 at 100 nM using KKKVSRSGLYRSPSMPENLNRPR as substrate by [gamma-33P]-ATP assay
[2] = biological target: Mitogen-activated protein kinase 10 (Homo sapiens) (UniProt P53779); assay: Inhibition of human JNK3 at 100 nM using ATF2 as substrate by [gamma-33P]-ATP assay
[3] = biological target: Calcium/calmodulin-dependent protein kinase type II subunit beta (Homo sapiens) (UniProt Q13554); assay: Inhibition of human CAMK2B at 100 nM using KKALRRQETVDAL as substrate by [gamma-33P]-ATP assay
[4] = biological target: Eukaryotic translation initiation factor 2-alpha kinase 1 (Homo sapiens) (UniProt Q9BQI3); assay: Inhibition of human EIF2AK1 at 100 nM using MBP as substrate by [gamma-33P]-ATP assay
[5] = biological target: MAP kinase-interacting serine/threonine-protein kinase 2 (Homo sapiens) (UniProt Q9HBH9); assay: Inhibition of human MNK2 at 100 nM using MBP as substrate by [gamma-33P]-ATP assay
[6] = biological target: Calcium/calmodulin-dependent protein kinase type IV (Homo sapiens) (UniProt Q16566); assay: Inhibition of human CAMK4 at 100 nM using KKLNRTLSFAEPG as substrate by [gamma-33P]-ATP assay
[7] = biological target: Receptor-type tyrosine-protein kinase FLT3 (Homo sapiens) (UniProt P36888); assay: Inhibition of human FLT3 at 100 nM using EAIYAAPFAKKK as substrate by [gamma-33P]-ATP assay
[8] = biological target: Casein kinase I isoform gamma-1 (Homo sapiens) (UniProt Q9HCP0); assay: Inhibition of human CK1gamma1 at 100 nM using KRRRAL[pS]VASLPGL as substrate by [gamma-33P]-ATP assay
[9] = biological target: Serine/threonine-protein kinase tousled-like 2 (Homo sapiens) (UniProt Q86UE8); assay: Inhibition of human TLK2 at 100 nM using casein as substrate by [gamma-33P]-ATP assay
[10] = biological target: Misshapen-like kinase 1 (Homo sapiens) (UniProt Q8N4C8); assay: Inhibition of human MINK1 at 100 nM using MBP as substrate by [gamma-33P]-ATP assay
[11] = biological target: STE20-like serine/threonine-protein kinase (Homo sapiens) (UniProt Q9H2G2); assay: Inhibition of human SLK at 100 nM using Histone H3 as substrate by [gamma-33P]-ATP assay
[12] = biological target: ALK tyrosine kinase receptor (Homo sapiens) (UniProt Q9UM73); assay: Inhibition of human ALK at 100 nM using poly[Glu:Tyr] (4:1) as substrate by [gamma-33P]-ATP assay
[13] = biological target: RAF proto-oncogene serine/threonine-protein kinase (Homo sapiens) (UniProt P04049); assay: Inhibition of human RAF1 at 100 nM using MEK1 as substrate by [gamma-33P]-ATP assay
[14] = biological target: Casein kinase II subunit alpha' (Homo sapiens) (UniProt P19784); assay: Inhibition of human CK2A2 at 100 nM using RRRDDDSDDD as substrate by [gamma-33P]-ATP assay
[15] = biological target: Serine/threonine-protein kinase haspin (Homo sapiens) (UniProt Q8TF76); assay: Inhibition of human haspin at 100 nM using Histone H3 as substrate by [gamma-33P]-ATP assay
[16] = biological target: Mitogen-activated protein kinase 11 (Homo sapiens) (UniProt Q15759); assay: Inhibition of human p38beta at 100 nM using MBP as substrate by [gamma-33P]-ATP assay
[17] = biological target: Serine/threonine-protein kinase Sgk1 (Homo sapiens) (UniProt O00141); assay: Inhibition of human SGK1 at 100 nM using KGSGSGRPRTSSFAEG as substrate by [gamma-33P]-ATP assay
[18] = biological target: Serine/threonine-protein kinase pim-3 (Homo sapiens) (UniProt Q86V86); assay: Inhibition of human PIM3 at 100 nM using RSRHSSYPAGT as substrate by [gamma-33P]-ATP assay
[19] = biological target: RAC-beta serine/threonine-protein kinase (Homo sapiens) (UniProt P31751); assay: Inhibition of human AKT2 at 100 nM using KGSGSGRPRTSSFAEG as substrate by [gamma-33P]-ATP assay
[20] = biological target: Serine/threonine-protein kinase MAK (Homo sapiens) (UniProt P20794); assay: Inhibition of human MAK at 100 nM using MBP as substrate by [gamma-33P]-ATP assay
[21] = biological target: CDK4/Cyclin D3 (Homo sapiens) (UniProt P11802+P30281); assay: Inhibition of human CDK4/cyclin-D3 at 100 nM using RB-CTF as substrate by [gamma-33P]-ATP assay; format: protein-complex assay
[22] = biological target: Serine/threonine-protein kinase 16 (Homo sapiens) (UniProt O75716); assay: Inhibition of human STK16 at 100 nM using MBP as substrate by [gamma-33P]-ATP assay
[23] = biological target: Tyrosine-protein kinase ITK/TSK (Homo sapiens) (UniProt Q08881); assay: Inhibition of human ITK at 100 nM using MBP as substrate by [gamma-33P]-ATP assay
[24] = biological target: Myosin light chain kinase (Homo sapiens) (UniProt Q32MK0); assay: Inhibition of human MYLK3 at 100 nM using KKRPQRRYSNVF as substrate by [gamma-33P]-ATP assay
[25] = biological target: Insulin receptor-related protein (Homo sapiens) (UniProt P14616); assay: Inhibition of human IRR at 100 nM using MBP as substrate by [gamma-33P]-ATP assay
[26] = biological target: Homeodomain-interacting protein kinase 4 (Homo sapiens) (UniProt Q8NE63); assay: Inhibition of human HIPK4 at 100 nM using MBP as substrate by [gamma-33P]-ATP assay
[27] = biological target: Mitogen-activated protein kinase kinase kinase kinase 4 (Homo sapiens) (UniProt O95819); assay: Inhibition of human HGK at 100 nM using MBP as substrate by [gamma-33P]-ATP assay
[28] = biological target: Ephrin type-B receptor 4 (Homo sapiens) (UniProt P54760); assay: Inhibition of human EPHB4 at 100 nM using poly[Glu:Tyr] (4:1) as substrate by [gamma-33P]-ATP assay
[29] = biological target: Calcium/calmodulin-dependent protein kinase kinase 2 (Homo sapiens) (UniProt Q96RR4); assay: Inhibition of human CAMKK2 at 100 nM using MBP as substrate by [gamma-33P]-ATP assay
[30] = biological target: Serine/threonine-protein kinase ICK (Homo sapiens) (UniProt Q9UPZ9); assay: Inhibition of human LCK2 at 100 nM using MBP as substrate by [gamma-33P]-ATP assay
[31] = biological target: CDK9/Cyclin K (Homo sapiens) (UniProt P50750+O75909); assay: Inhibition of human CDK9/cyclin-K at 100 nM using KTFCGTPEYLAPEVRREPRILSEEEQEMFRDFDYIADWC as substrate by [gamma-33P]-ATP assay; format: protein-complex assay

Sequence of Serine/threonine-protein kinase haspin (Homo sapiens) (Q8TF76 whole entry): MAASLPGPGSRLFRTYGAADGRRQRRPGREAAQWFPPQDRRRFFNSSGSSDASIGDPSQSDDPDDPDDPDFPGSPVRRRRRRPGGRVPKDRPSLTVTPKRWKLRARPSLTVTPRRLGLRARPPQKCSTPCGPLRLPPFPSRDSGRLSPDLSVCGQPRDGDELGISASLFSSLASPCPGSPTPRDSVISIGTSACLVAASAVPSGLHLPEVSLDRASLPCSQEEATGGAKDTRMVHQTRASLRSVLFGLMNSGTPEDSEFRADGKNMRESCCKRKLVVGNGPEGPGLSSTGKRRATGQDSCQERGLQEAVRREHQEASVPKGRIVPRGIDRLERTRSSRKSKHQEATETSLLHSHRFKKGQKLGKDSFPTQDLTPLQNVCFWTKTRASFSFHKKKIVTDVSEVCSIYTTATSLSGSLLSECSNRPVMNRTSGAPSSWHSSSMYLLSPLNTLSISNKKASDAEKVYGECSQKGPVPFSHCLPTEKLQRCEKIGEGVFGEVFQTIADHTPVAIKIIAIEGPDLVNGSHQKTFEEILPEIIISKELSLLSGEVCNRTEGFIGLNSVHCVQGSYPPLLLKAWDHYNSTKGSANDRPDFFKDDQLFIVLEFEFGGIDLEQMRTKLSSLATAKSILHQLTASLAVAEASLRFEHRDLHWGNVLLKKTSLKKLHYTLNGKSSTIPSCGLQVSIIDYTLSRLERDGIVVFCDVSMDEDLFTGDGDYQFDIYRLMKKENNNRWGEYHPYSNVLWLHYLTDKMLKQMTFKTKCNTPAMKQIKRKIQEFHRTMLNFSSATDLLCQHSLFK
Sequence of Casein kinase II subunit alpha' (Homo sapiens) (P19784 whole entry, looked up): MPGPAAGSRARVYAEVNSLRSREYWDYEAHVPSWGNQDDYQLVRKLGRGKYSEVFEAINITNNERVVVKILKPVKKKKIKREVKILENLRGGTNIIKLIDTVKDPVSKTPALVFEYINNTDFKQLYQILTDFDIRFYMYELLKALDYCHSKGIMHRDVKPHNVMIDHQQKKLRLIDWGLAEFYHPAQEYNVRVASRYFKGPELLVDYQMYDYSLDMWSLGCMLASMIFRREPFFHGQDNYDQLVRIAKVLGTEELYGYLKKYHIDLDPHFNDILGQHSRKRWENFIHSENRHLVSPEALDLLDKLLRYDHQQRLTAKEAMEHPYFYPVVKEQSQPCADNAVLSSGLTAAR
Sequence of Misshapen-like kinase 1 (Homo sapiens) (Q8N4C8 whole entry, looked up): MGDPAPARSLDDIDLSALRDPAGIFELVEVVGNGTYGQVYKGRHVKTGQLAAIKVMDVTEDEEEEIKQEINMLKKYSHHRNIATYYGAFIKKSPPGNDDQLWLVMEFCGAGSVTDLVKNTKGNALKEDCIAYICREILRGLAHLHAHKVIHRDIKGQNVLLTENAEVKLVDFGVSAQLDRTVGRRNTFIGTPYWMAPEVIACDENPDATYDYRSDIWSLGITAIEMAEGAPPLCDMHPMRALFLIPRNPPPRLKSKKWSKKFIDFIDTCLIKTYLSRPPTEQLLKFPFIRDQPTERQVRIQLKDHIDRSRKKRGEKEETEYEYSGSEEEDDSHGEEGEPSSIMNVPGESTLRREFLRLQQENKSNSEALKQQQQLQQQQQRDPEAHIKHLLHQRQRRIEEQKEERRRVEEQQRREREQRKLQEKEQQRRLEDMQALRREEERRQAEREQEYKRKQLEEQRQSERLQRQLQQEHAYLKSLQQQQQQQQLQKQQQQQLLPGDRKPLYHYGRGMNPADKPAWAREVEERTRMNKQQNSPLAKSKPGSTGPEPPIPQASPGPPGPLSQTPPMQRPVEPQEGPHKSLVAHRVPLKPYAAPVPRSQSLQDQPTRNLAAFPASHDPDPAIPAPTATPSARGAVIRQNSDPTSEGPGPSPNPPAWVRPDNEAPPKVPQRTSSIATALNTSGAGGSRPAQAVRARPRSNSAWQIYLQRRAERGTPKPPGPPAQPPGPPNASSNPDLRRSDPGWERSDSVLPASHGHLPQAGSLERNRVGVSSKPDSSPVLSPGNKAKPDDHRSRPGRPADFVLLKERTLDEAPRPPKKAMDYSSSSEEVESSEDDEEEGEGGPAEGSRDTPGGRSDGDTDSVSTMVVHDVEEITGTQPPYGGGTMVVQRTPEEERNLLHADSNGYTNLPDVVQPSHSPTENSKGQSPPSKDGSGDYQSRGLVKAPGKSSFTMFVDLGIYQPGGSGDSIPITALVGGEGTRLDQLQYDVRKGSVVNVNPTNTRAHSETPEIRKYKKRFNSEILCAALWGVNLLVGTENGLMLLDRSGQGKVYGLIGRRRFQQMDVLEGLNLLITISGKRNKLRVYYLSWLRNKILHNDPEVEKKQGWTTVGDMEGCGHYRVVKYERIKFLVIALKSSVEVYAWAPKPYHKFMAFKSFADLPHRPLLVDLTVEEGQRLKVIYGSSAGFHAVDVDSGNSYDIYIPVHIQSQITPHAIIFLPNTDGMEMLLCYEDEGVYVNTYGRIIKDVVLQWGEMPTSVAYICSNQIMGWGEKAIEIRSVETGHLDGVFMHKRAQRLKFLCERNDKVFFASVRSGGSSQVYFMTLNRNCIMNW
Sequence of Calcium/calmodulin-dependent protein kinase kinase 2 (Homo sapiens) (Q96RR4 2-588 limits assumed): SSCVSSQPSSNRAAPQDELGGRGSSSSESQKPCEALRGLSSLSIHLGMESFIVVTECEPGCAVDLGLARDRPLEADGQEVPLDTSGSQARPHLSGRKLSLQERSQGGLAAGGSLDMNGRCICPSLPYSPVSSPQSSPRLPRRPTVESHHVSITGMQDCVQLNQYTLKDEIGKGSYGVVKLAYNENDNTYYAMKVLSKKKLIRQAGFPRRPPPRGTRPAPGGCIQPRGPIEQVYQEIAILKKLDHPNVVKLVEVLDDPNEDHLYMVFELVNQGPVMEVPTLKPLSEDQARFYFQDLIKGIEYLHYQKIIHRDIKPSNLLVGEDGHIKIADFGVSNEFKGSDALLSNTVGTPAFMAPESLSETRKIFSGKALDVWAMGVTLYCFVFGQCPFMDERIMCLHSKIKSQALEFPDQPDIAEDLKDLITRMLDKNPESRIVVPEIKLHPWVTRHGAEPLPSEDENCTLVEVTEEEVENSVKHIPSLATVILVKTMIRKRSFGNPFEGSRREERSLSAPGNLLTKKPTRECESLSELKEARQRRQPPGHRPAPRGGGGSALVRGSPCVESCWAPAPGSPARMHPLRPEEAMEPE
Sequence of Calcium/calmodulin-dependent protein kinase type II subunit beta (Homo sapiens) (Q13554 whole entry): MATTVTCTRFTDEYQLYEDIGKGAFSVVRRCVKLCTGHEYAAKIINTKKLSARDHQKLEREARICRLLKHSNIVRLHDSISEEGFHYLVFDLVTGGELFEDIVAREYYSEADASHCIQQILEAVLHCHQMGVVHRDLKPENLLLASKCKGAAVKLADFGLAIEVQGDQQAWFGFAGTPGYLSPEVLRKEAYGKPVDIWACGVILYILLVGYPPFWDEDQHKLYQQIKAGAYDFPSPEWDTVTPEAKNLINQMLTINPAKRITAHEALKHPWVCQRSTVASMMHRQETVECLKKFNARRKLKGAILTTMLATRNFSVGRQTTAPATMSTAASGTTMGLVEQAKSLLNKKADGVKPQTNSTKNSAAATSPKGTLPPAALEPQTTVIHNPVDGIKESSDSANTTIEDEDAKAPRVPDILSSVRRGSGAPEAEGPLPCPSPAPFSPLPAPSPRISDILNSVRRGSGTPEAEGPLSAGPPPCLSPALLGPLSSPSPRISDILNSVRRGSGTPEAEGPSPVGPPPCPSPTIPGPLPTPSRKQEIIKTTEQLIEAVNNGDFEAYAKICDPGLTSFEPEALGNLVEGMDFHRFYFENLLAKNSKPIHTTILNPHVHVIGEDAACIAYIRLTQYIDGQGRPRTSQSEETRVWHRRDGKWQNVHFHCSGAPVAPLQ
Sequence of Mitogen-activated protein kinase kinase kinase kinase 4 (Homo sapiens) (O95819 2-1239 limits assumed): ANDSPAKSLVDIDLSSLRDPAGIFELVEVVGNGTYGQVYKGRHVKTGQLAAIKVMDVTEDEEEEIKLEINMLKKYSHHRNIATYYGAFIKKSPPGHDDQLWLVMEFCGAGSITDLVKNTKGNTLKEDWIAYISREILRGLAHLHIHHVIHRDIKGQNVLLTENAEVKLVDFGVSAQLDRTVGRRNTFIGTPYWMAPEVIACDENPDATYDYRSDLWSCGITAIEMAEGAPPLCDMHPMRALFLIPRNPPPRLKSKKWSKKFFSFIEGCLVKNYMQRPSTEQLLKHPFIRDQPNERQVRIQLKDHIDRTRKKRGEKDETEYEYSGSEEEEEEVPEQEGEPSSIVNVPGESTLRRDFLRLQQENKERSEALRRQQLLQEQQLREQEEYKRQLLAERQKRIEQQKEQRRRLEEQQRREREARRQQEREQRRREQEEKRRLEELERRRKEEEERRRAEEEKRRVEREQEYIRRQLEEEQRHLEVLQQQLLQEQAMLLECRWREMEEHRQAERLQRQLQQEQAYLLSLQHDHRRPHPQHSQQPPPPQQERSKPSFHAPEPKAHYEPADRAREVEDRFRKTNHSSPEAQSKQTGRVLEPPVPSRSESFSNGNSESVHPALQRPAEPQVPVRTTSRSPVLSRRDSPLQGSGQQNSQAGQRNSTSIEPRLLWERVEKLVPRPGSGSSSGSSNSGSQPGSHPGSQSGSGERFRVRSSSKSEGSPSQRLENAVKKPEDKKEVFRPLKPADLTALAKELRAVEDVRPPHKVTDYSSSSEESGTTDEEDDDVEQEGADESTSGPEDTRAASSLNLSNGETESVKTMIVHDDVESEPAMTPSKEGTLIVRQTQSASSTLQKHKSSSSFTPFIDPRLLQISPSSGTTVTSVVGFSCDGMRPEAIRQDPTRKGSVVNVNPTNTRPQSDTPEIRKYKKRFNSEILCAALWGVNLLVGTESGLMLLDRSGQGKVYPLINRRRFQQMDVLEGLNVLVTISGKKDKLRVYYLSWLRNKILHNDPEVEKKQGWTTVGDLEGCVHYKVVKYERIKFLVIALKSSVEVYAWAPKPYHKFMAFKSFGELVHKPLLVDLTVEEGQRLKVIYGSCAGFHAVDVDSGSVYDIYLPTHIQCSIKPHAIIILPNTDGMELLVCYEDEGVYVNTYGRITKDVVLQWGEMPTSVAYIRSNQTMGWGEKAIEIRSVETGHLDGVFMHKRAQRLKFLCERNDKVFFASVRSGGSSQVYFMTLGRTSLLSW

In the case of `COc1ccc(N2C(=O)COc3ccc(-c4cnc(OC)c(NS(=O)(=O)c5ccc(F)cc5)c4)cc32)cc1`, the inhibition [1] is reported as 0.26%, the inhibition [2] is reported as -6.25% and the inhibition [3] is reported as 5.36%. For the same compound, the inhibition [4] was 3.42%, the inhibition [5] was 21.1% and the inhibition [6] was 12%. It also gave an inhibition [7] of 16.6%, an inhibition [8] of 6.26% and an inhibition [9] of -7.96%. It also gave an inhibition [10] of 9.96%, an inhibition [11] of -0.32% and an inhibition [12] of 2.94%. For the same compound, the inhibition [13] was -0.03%, the inhibition [14] was 19.8% and the inhibition [15] was 12.1%. For the same compound, the inhibition [16] was 9.33%, the inhibition [17] was -1.5% and the inhibition [18] was -9.8%. The inhibition [19] was 28.1%, the inhibition [20] was 16.2% and the inhibition [21] was -5.7%. The inhibition [22] was -2.3%, the inhibition [23] was -1.21% and the inhibition [24] was 3.77%. For the same compound, the inhibition [25] was 14.4%, the inhibition [26] was 5.1% and the inhibition [27] was 19.4%. The inhibition [28] was 15.9%, the inhibition [29] was 13.7% and the inhibition [30] was 7.92%. It also gave an inhibition [31] of 9.26%.
